Test results as given in patent publication US11021446B2 (NOVARTIS AG, priority 2013, dated 2021).

target: T1, human Farnesoid X Receptor (FXR) ligand binding domain (GST-FXR LBD) (Homo sapiens, UniProt Q96RI1); test: Human GST-FXR LBD co-activator interaction assay (FXR HTRF assay); assay type: biochemical; conditions: GST-FXR LBD interaction with biotin-labeled SRC-1 peptide, FRET, response relative to GW4064, read-out: FXR coactivator interaction assay (HTRF)
T1 construct: purchased Invitrogen
T1 sequence (Q96RI1 193-472 isoform Q96RI1-2): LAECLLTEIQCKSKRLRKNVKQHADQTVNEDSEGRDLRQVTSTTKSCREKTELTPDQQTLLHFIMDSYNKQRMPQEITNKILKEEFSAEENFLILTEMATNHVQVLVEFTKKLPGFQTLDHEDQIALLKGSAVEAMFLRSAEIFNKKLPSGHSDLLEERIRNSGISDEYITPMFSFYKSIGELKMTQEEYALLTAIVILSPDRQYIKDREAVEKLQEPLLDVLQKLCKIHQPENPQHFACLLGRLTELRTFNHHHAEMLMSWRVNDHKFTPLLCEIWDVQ
Excerpt: Human GST-FXR LBD Co-Activator Interaction Assay
The FXR HTRF assay is a biochemical assay measuring the interaction between FXR and a coactivator protein (SRC1). The ligand-induced interaction with a coactivator protein is a critical step in transcriptional activation by FXR. Thus, this is an assay designed to measure FXR agonist activity of the test compounds.
Recombinant human Farnesoid X Receptor (FXR) ligand binding domain (amino acids 193-472) fused to glutathione S-transferase (GST) purified protein (GST-FXR LBD) was purchased (Invitrogen). The ligand-dependent interaction between GST-FXR LBD and a peptide derived from Steroid Receptor Coactivator-1 (SRC-1) was monitored by Fluorescence Resonance Energy Transfer (FRET). […] Test compounds (in DMSO solution) and detection reagents (anti-GST-Cryptate labeled antibody and Streptavidin-XL665 conjugate; CisBio) were added in assay buffer containing 50 mM KF. Plates are incubated at room temperature in the dark for 2.5 hrs before reading on an Envision (PerkinElmer) at 665 nm and 590 nm. The HTRF assay results were calculated from the 665 nm/590 nm ratio (ratio=(A665 nm/A590 nm)×10^4) and expressed in Delta F %=(Ratiosample−Rationegative)/Rationegative×100.
A negative control (without Streptavidin-XL665) was run with each assay and represented the background fluorescence. A reference FXR agonist, (E)-3-(2-chloro-4-((3-(2,6-dichlorophenyl)-5-isopropylisoxazol-4-yl)methoxy)styryl)benzoic acid (Compound GW4064), was included in each experiment as positive control. The efficacy of each test compound was compared to that of GW4064. At each concentration, the relative activity of the test compound was expressed as Response %=(Rsample−RDMSO)/(Rpositive−RDMSO), where Rsample is the HTRF response (expressed in Delta F %) for the test compound, Rpositive is the maximal response for GW4064 at saturating concentrations, and RDMSO is the response for DMSO control. The EC50 values were calculated using GraphPad Prism (GraphPad Software) using non-linear regression curve fit (log(agonist) vs. response-variable slope (four parameters)).

Structure (SMILES) | EC50 [nM]
Cn1nc(C(=O)N(CC(=O)Nc2cccc(C(=O)O)c2)Cc2ccccc2F)c2c1-c1cc(F)c(F)cc1OC2 [Compound 10] | 1.7
Cc1cc2c(cc1Cl)-c1c(c(C(=O)N(CC(=O)Nc3cccc(C(=O)O)c3)Cc3ccccc3F)nn1C)CO2 [Compound 13, 3-(2-(8-chloro-N-(2-fluorobenzyl)-1,7-dimethyl-1,4-dihydrochromeno[4,3-c]pyrazole-3-carboxamido)acetamido)benzoic acid] | 0.8
Cn1nc(C(=O)N(CCOc2c(F)cc(C(=O)O)cc2F)Cc2ccccc2)c2c1-c1cc(Cl)ccc1OC2 [Compound 52, 4-(2-(N-benzyl-8-chloro-1-methyl-1,4-dihydrochromeno[4,3-c]pyrazole-3-carboxamido)ethoxy)-3,5-difluorobenzoic acid] | 2.6
Cn1nc(C(=O)N(Cc2ccccc2)Cc2ccc(C(=O)O)cc2)c2c1-c1cc(Cl)ccc1OC2 [Compound 75, 4-((N-benzyl-8-chloro-1-methyl-1,4-dihydrochromeno[4,3-c]pyrazole-3-carboxamido)methyl)benzoic Acid] | 6
Cc1ccc(C(=O)O)cc1NC(=O)CN(Cc1ccccc1F)C(=O)c1nn(C)c2c1COc1ccc(Cl)cc1-2 [Compound 39] | 5.9
Cn1nc(C(=O)N(CCOc2cccc(C(=O)O)c2)Cc2ccccc2F)c2c1-c1cc(Cl)ccc1OC2 [Compound 44, 3-(2-(8-chloro-N-(2-fluorobenzyl)-1-methyl-1,4-dihydrochromeno[4,3-c]pyrazole-3-carboxamido)ethoxy)benzoic acid] | 11
Cc1cccc2c1OCc1c(C(=O)N(CC(=O)Nc3cccc(C(=O)O)c3)Cc3ccccc3F)nn(C)c1-2 [Compound 6, 3-(2-(N-(2-fluorobenzyl)-1,6-dimethyl-1,4-dihydrochromeno[4,3-c]pyrazole-3-carboxamido)acetamido)benzoic acid] | 2.4
Cn1nc(C(=O)N(Cc2cccc(F)c2)Cc2ccc(C(=O)O)cc2F)c2c1-c1cc(Cl)ccc1OC2 [Compound 96, 4-((8-chloro-N-(3-fluorobenzyl)-1-methyl-1,4-dihydrochromeno[4,3-c]pyrazole-3-carboxamido)methyl)-3-fluorobenzoic acid] | 3.6
Cc1cccc(CN(CC(=O)Nc2cc(C(=O)O)ccc2F)C(=O)c2nn(C)c3c2COc2ccc(Cl)cc2-3)c1 [Compound 3, 3-(2-(8-chloro-1-methyl-N-(3-methylbenzyl)-1,4-dihydrochromeno[4,3-c]pyrazole-3-carboxamido)acetamido)-4-fluorobenzoic acid] | 0.51

Further compounds by falling EC50, results first:

EC50 [nM] | Structure (SMILES)
40 | Cn1nc(C(=O)N(CCOc2ccc(C(=O)O)cc2F)Cc2ccccc2)c2c1-c1cc(F)ccc1OC2 [Compound 56, 4-(2-(N-benzyl-8-fluoro-1-methyl-1,4-dihydrochromeno[4,3-c]pyrazole-3-carboxamido)ethoxy)-3-fluorobenzoic acid]
33 | Cn1nc(C(=O)N(CC(=O)Nc2cc(C(=O)O)ccc2F)CC2CCCC2)c2c1-c1cc(Cl)ccc1OC2 [Compound 36, 3-(2-(8-chloro-N-(cyclopentylmethyl)-1-methyl-1,4-dihydrochromeno[4,3-c]pyrazole-3-carboxamido)acetamido)-4-fluorobenzoic Acid]
9.6 | Cn1nc(C(=O)N(Cc2ccccc2)Cc2ccc(C(=O)O)cc2F)c2c1-c1cc(Cl)ccc1OC2 [Compound 76, 4-((N-benzyl-8-chloro-1-methyl-1,4-dihydrochromeno[4,3-c]pyrazole-3-carboxamido)methyl)-3-fluorobenzoic acid]
5.4 | Cn1nc(C(=O)N(CC(=O)Nc2cccc(C(=O)O)c2)Cc2ccccc2F)c2c1-c1ccccc1OC2 [Compound 12, 3-(2-(N-(2-fluorobenzyl)-1-methyl-1,4-dihydrochromeno[4,3-c]pyrazole-3-carboxamido)acetamido)benzoic acid]
0.75 | Cc1cccc(CN(CC(=O)Nc2cc(C(=O)O)ccc2F)C(=O)c2nn(C)c3c2COc2ccccc2-3)c1 [Compound 4, 4-fluoro-3-(2-(1-methyl-N-(3-methylbenzyl)-1,4-dihydrochromeno[4,3-c]pyrazole-3-carboxamido)acetamido)benzoic acid]
